Experimental data: patent publication US8399465B2, “Compounds with two fused bicyclic heteroaryl moieties as modulators of leukotriene A4 hydrolase” (Janssen Pharmaceutica NV, priority 2009, dated 2013)
pIC50: −log10 of the molar value. Structures can show the parent of a compound that is named as a salt.

How the values were obtained:
[1] = biological target: T1, recombinant human LTA4 hydrolase (rhLTA4H) (Homo sapiens, UniProt P09960); assay: Recombinant human LTA4 hydrolase assay for LTA4 hydrolase inhibitor activity; type: biochemical; settings: rhLTA4H, LTB4 by immunoassay; single determination or average of two or more; mark after value = form tested: ′ free base, ″ hydrochloride, ^ formate; read-out: IC50
T1 construct: made in house; host or cells: Spodoptera frugiperda (Sf-9) cells, baculovirus (pFastBac1)
T1 sequence (P09960 1-611): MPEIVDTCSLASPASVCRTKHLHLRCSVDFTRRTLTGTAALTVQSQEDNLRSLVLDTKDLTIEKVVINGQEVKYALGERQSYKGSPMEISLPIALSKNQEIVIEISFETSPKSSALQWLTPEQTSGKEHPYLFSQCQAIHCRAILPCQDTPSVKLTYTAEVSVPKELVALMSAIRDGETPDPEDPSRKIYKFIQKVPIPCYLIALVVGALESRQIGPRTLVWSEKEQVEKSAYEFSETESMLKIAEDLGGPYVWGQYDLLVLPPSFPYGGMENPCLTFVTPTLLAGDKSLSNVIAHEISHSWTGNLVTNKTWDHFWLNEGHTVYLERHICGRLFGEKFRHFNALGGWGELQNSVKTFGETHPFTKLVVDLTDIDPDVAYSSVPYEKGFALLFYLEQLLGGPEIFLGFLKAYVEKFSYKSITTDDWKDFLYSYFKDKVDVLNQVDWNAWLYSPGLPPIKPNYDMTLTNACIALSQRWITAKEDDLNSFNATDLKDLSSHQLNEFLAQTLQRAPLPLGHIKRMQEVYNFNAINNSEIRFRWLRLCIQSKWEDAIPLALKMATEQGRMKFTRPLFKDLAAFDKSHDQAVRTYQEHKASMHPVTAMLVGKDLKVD
Summary of the method: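 LTB4 formation, measured by enzyme immunoassay, was the read-out. The enzyme, recombinant human LTA4H expressed in Sf-9 insect cells (10 ng per reaction), was exposed to compound for 10 min at room temperature before hydrolysed-ester LTA4 substrate was added for 30 min. Enzyme-free negatives were included.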

[2] = test system: LTB4 production in murine blood (LTA4H); assay: LTB4 production by calcium ionophore-stimulated murine blood for LTA4H inhibitor activity; type: cell-based, CD-1 mice; settings: Mus musculus; murine blood diluted 1 in 15, A23187 stimulated; single determination or average; mark after value = form tested: ′ free base, ″ hydrochloride, ^ formate; read-out: IC50
Summary of the method: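 LTB4 was measured by ELISA in supernatants after calcium ionophore A23187 stimulation (final 7 μg/mL, 30 min, 37° C) of CD-1 mouse blood collected on heparin. Compound was preincubated with the blood for 15 min beforehand. Values come from one determination or average several.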

| Compound | pIC50 [1] | pIC50 [2] |
| --- | --- | --- |
| CC(=O)N1[C@@H]2CC[C@H]1CN(Cc1coc3cc(Oc4nc5ncccc5s4)ccc13)C2 [Example 295, meso-1-{3-[6-(Thiazolo[4,5-b]pyridin-2-yloxy)-benzofuran-3-ylmethyl]-3,8-diaza-bicyclo[3.2.1]oct-8-yl}-ethanone formate] | 8.40 | 7.26 |
| c1cnc2nc(Oc3ccc4c(CNC5CC5)coc4c3)sc2c1 [Example 297, Cyclopropyl-[6-(thiazolo[4,5-b]pyridin-2-yloxy)-benzofuran-3-ylmethyl]-amine] | 7.72 | 6.62 |
| c1cnc2nc(Oc3ccc4c(CNC5CCCC5)coc4c3)sc2c1 [Example 298, Cyclopentyl-[6-(thiazolo[4,5-b]pyridin-2-yloxy)-benzofuran-3-ylmethyl]-amine] | 7.92 | 7.77 |
| c1cnc2nc(Oc3ccc4c(CNC5CCCCC5)coc4c3)sc2c1 [Example 299, Cyclohexyl-[6-(thiazolo[4,5-b]pyridin-2-yloxy)-benzofuran-3-ylmethyl]-amine] | 7.80 | 7.92 |
| c1csc(CNCc2coc3cc(Oc4nc5ncccc5s4)ccc23)c1 [Example 300, [6-(Thiazolo[4,5-b]pyridin-2-yloxy)-benzofuran-3-ylmethyl]-thiophen-2-ylmethyl-amine] | 7.70 | 6.82 |
| CC(C)(C)NCc1coc2cc(Oc3nc4ncccc4s3)ccc12 [Example 301, tert-Butyl-[6-(thiazolo[4,5-b]pyridin-2-yloxy)-benzofuran-3-ylmethyl]-amine formate] | 7.82 | 8.40 |
| CC(C)(C)C1CCN(Cc2coc3cc(Oc4nc5ncccc5s4)ccc23)CC1 [Example 302, 2-[3-(4-tert-Butyl-piperidin-1-ylmethyl)-benzofuran-6-yloxy]-thiazolo[4,5-b]pyridine formate] | 7.70 | 7.11 |
| CCCNCc1coc2cc(Oc3nc4ncccc4s3)ccc12 [Example 303, Propyl-[6-(thiazolo[4,5-b]pyridin-2-yloxy)-benzofuran-3-ylmethyl]-amine formate] | 7.96 | 7.82 |
| CC(C)CNCc1coc2cc(Oc3nc4ncccc4s3)ccc12 [Example 304, Isobutyl-[6-(thiazolo[4,5-b]pyridin-2-yloxy)-benzofuran-3-ylmethyl]-amine formate] | 8.52 | 7.62 |
| c1cnc2nc(Oc3ccc4c(CNCCN5CCOCC5)coc4c3)sc2c1 [Example 306, (2-Morpholin-4-yl-ethyl)-[6-(thiazolo[4,5-b]pyridin-2-yloxy)-benzofuran-3-ylmethyl]-amine formate] | 7.02 | 8.00 |
| CC(C)CN1CCN(Cc2coc3cc(Oc4nc5ncccc5s4)ccc23)CC1 [Example 308, 2-[3-(4-Isobutyl-piperazin-1-ylmethyl)-benzofuran-6-yloxy]-thiazolo[4,5-b]pyridine formate] | 8.05 | 7.15 |
| CC(=O)N[C@H]1CCN(Cc2coc3cc(Oc4nc5ncccc5s4)ccc23)C1 [Example 310, (S)—N-{1-[6-(Thiazolo[4,5-b]pyridin-2-yloxy)-benzofuran-3-ylmethyl]-pyrrolidin-3-yl}-acetamide] | 7.89 | 7.44 |
| OC[C@@H]1CCCN1Cc1coc2cc(Oc3nc4ccccc4s3)ccc12 [Example 312, (S)-{1-[6-(Benzothiazol-2-yloxy)-benzofuran-3-ylmethyl]-pyrrolidin-2-yl}-methanol] | 7.66 | 6.80 |
| CCCOC1CN(Cc2coc3cc(Oc4nc5ncccc5s4)ccc23)C1 [Example 314, 2-[3-(3-Propoxy-azetidin-1-ylmethyl)-benzofuran-6-yloxy]-thiazolo[4,5-b]pyridine] | 7.82 | 7.55 |
| OC1CN(Cc2coc3cc(Oc4nc5ncccc5s4)ccc23)C1 [Example 315, 1-[6-(Thiazolo[4,5-b]pyridin-2-yloxy)-benzofuran-3-ylmethyl]-azetidin-3-ol] | 8.00 | 7.47 |
| FC1(F)CN(Cc2coc3cc(Oc4nc5ncccc5s4)ccc23)C1 [Example 316, 2-[3-(3,3-Difluoro-azetidin-1-ylmethyl)-benzofuran-6-yloxy]-thiazolo[4,5-b]pyridine] | 7.54 | 6.92 |
| c1ccc(CCNCc2coc3cc(Oc4nc5ncccc5s4)ccc23)cc1 [Example 321, Phenethyl-[6-(thiazolo[4,5-b]pyridin-2-yloxy)-benzofuran-3-ylmethyl]-amine formate] | 7.40 | 7.29 |
| CC(=O)N(C1CC1)C1CCN(Cc2coc3cc(Oc4nc5ncccc5s4)ccc23)CC1 [Example 322, N-Cyclopropyl-N-{1-[6-(thiazolo[4,5-b]pyridin-2-yloxy)-benzofuran-3-ylmethyl]-piperidin-4-yl}-acetamide] | 8.22 | 7.52 |
| CC(=O)N(C(C)C)C1CCN(Cc2coc3cc(Oc4nc5ncccc5s4)ccc23)CC1 [Example 323, N-Isopropyl-N-{1-[6-(thiazolo[4,5-b]pyridin-2-yloxy)-benzofuran-3-ylmethyl]-piperidin-4-yl}-acetamide] | 8.05 | 7.39 |
| CC(=O)N[C@@H]1CCN(Cc2coc3cc(Oc4nc5ncccc5s4)ccc23)C1 [Example 324, (R)—N-{1-[6-(Thiazolo[4,5-b]pyridin-2-yloxy)-benzofuran-3-ylmethyl]-pyrrolidin-3-yl}-acetamide] | 8.10 | 7.80 |
| c1csc(CN2CCN(Cc3coc4cc(Oc5nc6ncccc6s5)ccc34)CC2)c1 [Example 325, 2-[3-(4-Thiophen-2-ylmethyl-piperazin-1-ylmethyl)-benzofuran-6-yloxy]-thiazolo[4,5-b]pyridine] | 7.59 | 7.11 |
| c1cnc2nc(Oc3ccc4c(CN5CCN6CCCC6C5)coc4c3)sc2c1 (stereo not drawn) [Example 326, 2-[3-(Hexahydro-pyrrolo[1,2-a]pyrazin-2-ylmethyl)-benzofuran-6-yloxy]-thiazolo[4,5-b]pyridine] | 7.68 | 6.92 |
| CCN(CC)C1CCN(Cc2coc3cc(Oc4nc5ncccc5s4)ccc23)C1 (stereo not drawn) [Example 327, Diethyl-{1-[6-(thiazolo[4,5-b]pyridin-2-yloxy)-benzofuran-3-ylmethyl]-pyrrolidin-3-yl}-amine] | 7.54 | 6.89 |
| F[C@@H]1CCN(Cc2coc3cc(Oc4nc5ncccc5s4)ccc23)C1 [Example 328, (R)-2-[3-(3-Fluoro-pyrrolidin-1-ylmethyl)-benzofuran-6-yloxy]-thiazolo[4,5-b]pyridine] | 7.92 | 7.03 |
| Fc1ccc2c(c1)CN(Cc1coc3cc(Oc4nc5ncccc5s4)ccc13)C2 [Example 330, 2-[3-(5-Fluoro-1,3-dihydro-isoindol-2-ylmethyl)-benzofuran-6-yloxy]-thiazolo[4,5-b]pyridine] | 7.27 | 5.98 |
| c1ccc2c(c1)CN(Cc1coc3cc(Oc4nc5ncccc5s4)ccc13)C2 [Example 331, 2-[3-(1,3-Dihydro-isoindol-2-ylmethyl)-benzofuran-6-yloxy]-thiazolo[4,5-b]pyridine] | 7.27 | 5.97 |
| CC(=O)N1[C@@H]2CC[C@H]1C[C@@H](NCc1coc3cc(Oc4nc5ncccc5s4)ccc13)C2 [Example 332, meso-endo-1-(3-{[6-(Thiazolo[4,5-b]pyridin-2-yloxy)-benzofuran-3-ylmethyl]-amino}-8-aza-bicyclo[3.2.1]oct-8-yl)-ethanone formate] | 8.10 | 7.00 |
| CC(=O)N1[C@@H]2CC[C@H]1C[C@H](NCc1coc3cc(Oc4nc5ncccc5s4)ccc13)C2 [Example 333, meso-exo-1-(3-{[6-(Thiazolo[4,5-b]pyridin-2-yloxy)-benzofuran-3-ylmethyl]-amino}-8-aza-bicyclo[3.2.1]oct-8-yl)-ethanone formate] | 8.22 | 7.62 |
| CN(CCC(=O)O)Cc1coc2cc(Oc3nc4ncccc4s3)ccc12 [Example 335, 3-{Methyl-[6-(thiazolo[4,5-b]pyridin-2-yloxy)-benzofuran-3-ylmethyl]-amino}-propionic acid formate] | 8.30 | 6.70 |
| CC(=O)N1C[C@H]2C[C@@H]1CN2Cc1cc2ncc(Oc3nc4ncccc4s3)cc2o1 [Example 340, (1R,4R)-1-{5-[6-(Thiazolo[4,5-b]pyridin-2-yloxy)-furo[3,2-b]pyridin-2-ylmethyl]-2,5-diaza-bicyclo[2.2.1]hept-2-yl}-ethanone formate] | 7.92 | 6.21 |
